# Test results: patent US11618747B2, “LXR modulators with bicyclic core moiety” (OrsoBio, Inc., priority 2018, dated 2023)
# Like-named read-outs stand apart in the source and are kept apart here.
# Key:
# [1] = biological target: T1, LXRβ ligand-binding domain (Homo sapiens, UniProt P55055, DUP175-175); experiment: TR-FRETβ activity assay (NCoA3 coactivator peptide recruitment); format: biochemical
# T1 construct: amino acids 156-461; NP009052; made in house; host or cells: E. coli
# T1 sequence (P55055 with tags, fused parts or gaps DUP175-175 limits assumed): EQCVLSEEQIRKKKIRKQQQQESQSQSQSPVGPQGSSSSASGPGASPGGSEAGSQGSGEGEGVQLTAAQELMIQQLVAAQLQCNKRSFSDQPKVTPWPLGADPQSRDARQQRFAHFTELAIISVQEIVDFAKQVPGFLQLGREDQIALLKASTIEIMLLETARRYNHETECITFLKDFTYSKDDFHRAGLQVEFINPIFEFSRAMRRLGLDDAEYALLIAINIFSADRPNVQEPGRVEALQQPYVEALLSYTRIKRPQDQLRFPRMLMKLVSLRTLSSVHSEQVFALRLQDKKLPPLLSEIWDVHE
# Summary of the method: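 GST-tagged human LXRβ LBD (aa 156-461, E. coli) at 76 nM with 400 nM biotinylated NCoA3 peptide in Tris/HCl pH 6.8, 240 mM KCl, BSA, 0.002% Triton-X-100, plus 1 μM 24(S)-25-epoxycholesterol as prestimulating agonist. Compounds at 50 μM down to 0.002 μM, 1 h at 4 °C. Coactivator recruitment by TR-FRET (Tb cryptate/XL665, 615/665 nm), triplicates.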
# [2] = biological target: T2, ligand-binding domain (LBD) of LXRβ (Homo sapiens, UniProt P55055, DUP175-175); experiment: LXR Gal4 reporter transient transfection assay (LBD-M2H Gal4β); format: cell-based; settings: HEK293 cells, LXRβ LBD; read-out: LBD-M2H Gal4β (EC50 range)
# T2 construct: LXRβ (amino acids 156-461); expressed in transfected cells; host or cells: HEK293
# T2 sequence (P55055 with tags, fused parts or gaps DUP175-175 limits assumed): T1 sequence (P55055 with tags, fused parts or gaps DUP175-175 limits assumed)
# Protocol: The tested compounds were usually dissolved, tested and stored as 20 mM stock solutions in DMSO. Since sulfonyl acetic acid derivatives tend to decarboxylate under these conditions, these stock solutions were prepared, tested and stored as 20 mM DMSO stock solutions containing 100 mM trifluoroacetic Acid (5 equivalents). Sulfonyl acetic acid derivatives are shelf stable as solid at rt for long time as reported by Griesbrecht et al. (Synlett 2010:374) or Faucher et al. (J. Med. Chem. 2004; 47:18).
# LXR Gal4 Reporter Transient Transfection Assays
# LXRα and LXRβ activity status was determined via detection of interaction with coactivator and corepressor proteins in mammalian two-hybrid experiments (M2H). For this, via transient transfection the full length (FL) proteins of LXRα (amino acids 1-447; NP005684; SEQ ID NO:1) or LXRβ-(amino acids 1-461; NP009052; SEQ ID NO:2) or the ligand-binding domains (LBD) of LXRα (amino acids 155-447 SEQ ID NO:3) or LXRβ (amino acids 156-461; SEQ ID NO:4) were expressed from pCMV-AD (Stratagene) as fusions to the transcriptional activation domain of NFkB. As cofactors, domains of either the steroid receptor coactivator 1 (SRC1; amino acids 552-887; SEQ ID NO:5) or of the corepressor NCoR (amino acids 1906-2312; NP006302; SEQ ID NO:6) were expressed as fusions to the DNA binding domain of the yeast transcription factor GAL4 (from pCMV-BD; Stratagene). Interaction was monitored via activation of a coexpressed Firefly Luciferase Reporter gene under control of a promoter containing repetitive GAL4 response elements (vector pFRLuc; Stratagene). Transfection efficiency was controlled via cotransfection of constitutively active pRL-CMV Renila reniformis luciferase reporter (Promega). HEK293 cells were grown in minimum essential medium (MEM) with 2 mM L-glutamine and Earle's balanced salt solution supplemented with 8.3% fetal bovine serum, 0.1 mM non-essential amino acids, 1 mM sodium pyruvate, at 37° C. in 5% CO2. 3.5×10^4 cells/well were plated in 96-well cell culture plates in growth medium supplemented with 8.3% fetal bovine serum for 16-20 h to ˜90% confluency. For transfection, medium was taken off and LXR and cofactor expressing plasmids as well as the reporter plasmids are added in 30 μL OPTIMEM/well including polyethylene-imine (PEI) as vehicle. Typical amounts of plasmids transfected/well: pCMV-AD-LXR (5 ng), pCMV-BD-cofactor (5 ng), pFR-Luc (100 ng), pRL-CMV (0.5 ng). Compound stocks were prepared in DMSO, prediluted in MEM to a total volume of 120 μL, and added 4 h after addition of the transfection mixture (final vehicle concentration not exceeding 0.2%). Cells were incubated for additional 16 h, lysed for 10 min in 1× Passive Lysis Buffer (Promega) and Firefly and Renilla luciferase activities were measured sequentially in the same cell extract using buffers containing D-luciferine and coelenterazine, respectively. Measurements of luminescence were done in a BMG-luminometer.
# [3] = Short term HFD mouse model: plasma and liver exposure; format: in vivo, mice (C57BL/6J); settings: HFD mice, 4 h after last dose
# Protocol: Short Term HFD Mouse Model:
# The in vivo transcriptional regulation of several LXR target genes by LXR modulators was assessed in mice.
# For this, C57BL/6J were purchased from Elevage Janvier (Rennes, France) at the age of 8 weeks. After an acclimation period of two weeks, animals were preferred on a high fat diet (HFD) (Ssniff Spezialdiäten GmbH, Germany, Surwit EF D12330 mod, Cat. No. E15771-34), with 60 kcal % from fat plus 1% (w/w) extra cholesterol (Sigma-Aldrich, St. Louis, Mo.) for 5 days. Animals were maintained on this diet during treatment with LXR modulators. The test compounds were formulated in 0.5% hydroxypropylmethylcellulose (HPMC) and administered in three doses (from 1.5 to 20 mg/kg each) by oral gavage according to the following schedule: on day one, animals received treatment in the morning and the evening (ca. 17:00), on day two animals received the final treatment in the morning after a 4 h fast and were sacrificed 4 h thereafter. Animal work was conducted according to the national guidelines for animal care in Germany.
# Upon termination, liver was collected, dipped in ice cold PBS for 30 seconds and cut into appropriate pieces. Pieces were snap frozen in liquid nitrogen and stored at −80° C. For the clinical chemistry analysis from plasma, alanine aminotransferase (ALT, IU/mL), cholesterol (CHOL, mg/dL) and triglycerides (TG, mg/dL) were determined using a fully-automated bench top analyzer (Respons®910, DiaSys Greiner GmbH, Flacht, Germany) with system kits provided by the manufacturer.
# full length (FL) LXRβ = biological target: T3, full length (FL) LXRβ (Homo sapiens, UniProt P55055, DUP175-175); experiment: LXR Gal4 reporter transient transfection assay (FL-M2H Gal4β); format: cell-based; settings: HEK293 cells
# T3 construct: the full length (FL) proteins of LXRα (amino acids 1-447); NP005684; NP009052; expressed in transfected cells; host or cells: HEK293
# T3 sequence (P55055 with tags, fused parts or gaps DUP175-175): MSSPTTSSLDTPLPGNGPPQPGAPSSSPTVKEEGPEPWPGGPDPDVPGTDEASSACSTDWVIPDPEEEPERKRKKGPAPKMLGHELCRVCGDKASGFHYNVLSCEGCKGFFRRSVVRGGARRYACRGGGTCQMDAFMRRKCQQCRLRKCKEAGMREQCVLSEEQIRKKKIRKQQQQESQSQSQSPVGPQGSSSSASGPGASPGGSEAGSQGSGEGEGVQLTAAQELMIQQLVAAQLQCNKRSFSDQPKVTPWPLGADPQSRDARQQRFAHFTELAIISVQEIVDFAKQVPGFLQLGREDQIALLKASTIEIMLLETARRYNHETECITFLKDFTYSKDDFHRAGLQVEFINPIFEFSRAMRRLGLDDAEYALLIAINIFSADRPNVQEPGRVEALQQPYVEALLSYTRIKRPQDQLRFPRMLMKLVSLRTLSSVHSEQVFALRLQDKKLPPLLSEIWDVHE
# Summary of the method: (§1)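 Cells (HEK293, 3.5×10^4/well) were plated 16-20 h, transfected with LXR, cofactor and reporter plasmids, treated with compound after 4 h, and lysed after a further 16 h. Interaction of LXR constructs with SRC1 or NCoR is detected by GAL4-driven Firefly luciferase.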
# full length (FL) LXRα = biological target: T4, full length (FL) LXRα (Homo sapiens, UniProt Q13133); experiment: LXR Gal4 reporter transient transfection assay (FL-M2H Gal4α); format: cell-based; settings: HEK293 cells
# T4 construct: the full length (FL) proteins of LXRα (amino acids 1-447); NP005684; expressed in transfected cells; host or cells: HEK293
# T4 sequence (Q13133 1-447): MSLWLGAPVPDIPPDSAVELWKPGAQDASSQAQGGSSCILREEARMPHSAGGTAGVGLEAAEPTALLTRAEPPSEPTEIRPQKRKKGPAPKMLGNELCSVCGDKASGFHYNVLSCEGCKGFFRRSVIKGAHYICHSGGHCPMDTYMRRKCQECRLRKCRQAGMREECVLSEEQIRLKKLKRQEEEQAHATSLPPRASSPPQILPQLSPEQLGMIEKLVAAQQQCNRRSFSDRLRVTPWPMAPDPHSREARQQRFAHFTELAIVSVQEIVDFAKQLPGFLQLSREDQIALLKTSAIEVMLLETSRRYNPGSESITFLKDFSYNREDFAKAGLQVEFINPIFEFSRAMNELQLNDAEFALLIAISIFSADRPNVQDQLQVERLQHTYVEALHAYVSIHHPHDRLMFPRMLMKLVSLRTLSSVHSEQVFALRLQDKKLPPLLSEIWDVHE
# Summary of the method: as §1
# [4] = TR-FRET, 1 μM 24(S)-25-epoxycholesterol prestimulation, read-out: FRETβ (EC50 range)
# [5] = full length LXRβ, read-out: FL-M2H Gal4β (EC50 range)
# [6] = full length LXRα, read-out: FL-M2H Gal4α (EC50 range)
# [7] = 1 μM 24(S)-25-epoxycholesterol as prestimulating agonist
# [8] = 1 μM 24(S)-25-epoxycholesterol as prestimulating agonist, read-out: FRETβ potency
smiles,measurement,setting,value
"Cc1ccc(S(=O)(=O)n2c(-c3cccc(C4CC4C(=O)O)c3)c(-c3ccsc3C#N)c3ccccc32)cc1 (racemic) [Example 30, rac-(1R,2R)-2-(3-(3-(2-Cyanothiophen-3-yl)-1-tosyl-1H-indol-2-yl)phenyl)cyclopropane-1-carboxylic Acid]",EC50,[1]; [4],100 to 1000 nM
same,EC50,[2],< 100 nM
Cc1cccc(S(=O)(=O)n2c(-c3cccc(N4CC(C(=O)O)C4)c3)c(-c3ccsc3C#N)c3cc(F)ccc32)c1 [3/8],EC50,[1]; [4],1000 to 10000 nM
same,EC50,[2],< 100 nM
N#Cc1sccc1-c1c(-c2cccc(-c3ccc(C(=O)O)cc3Cl)c2)n(S(=O)(=O)c2ccc(C(F)F)cc2)c2ccc(F)cc12 [11/17],liver exposure 4 h,[3]; three oral doses of 20 mg/kg,D (>10 μM)
same,liver/plasma ratio 4 h,[3]; three oral doses of 20 mg/kg,C (30 to ≤100)
same,plasma exposure 4 h,[3]; three oral doses of 20 mg/kg,C (C: 100 nM to <300 nM)
same,EC50,[1]; [4],< 100 nM
same,EC50,full length (FL) LXRβ; [5],< 100 nM
N#Cc1cccc(C#N)c1-c1c(-c2cccc([C@H]3CC[C@H](C(=O)O)CC3)c2)n(S(=O)(=O)c2ccc(C(F)F)cc2)c2ccc(F)cc12 [11/62],liver exposure 4 h,[3]; three oral doses of 10 mg/kg,C (1 μM to ≤10 μM)
same,liver/plasma ratio 4 h,[3]; three oral doses of 10 mg/kg,B (5 to ≤30)
same,plasma exposure 4 h,[3]; three oral doses of 10 mg/kg,C (C: 100 nM to <300 nM)
same,EC50,[1]; [4],100 to 1000 nM
same,EC50,full length (FL) LXRβ; [5],< 100 nM
COc1ccc(S(=O)(=O)n2c(-c3ccccc3)c(-c3cc4ccccc4nc3C#N)c3ccccc32)cc1 [20/17],EC50,[2],100 to 1000 nM
CS(=O)(=O)NC(=O)c1ccc(-c2cccc(-c3c(-c4c(C#N)cccc4C#N)c4cc(F)ccc4n3S(=O)(=O)c3ccc(C(F)F)cc3)c2)c(Cl)c1 [32/5],liver exposure 4 h,[3]; three oral doses of 10 mg/kg,B (300 nM to ≤1 μM)
same,liver/plasma ratio 4 h,[3]; three oral doses of 10 mg/kg,B (5 to ≤30)
same,plasma exposure 4 h,[3]; three oral doses of 10 mg/kg,D (D: <100 nM)
same,EC50,[1]; [4],< 100 nM
same,EC50,full length (FL) LXRβ; [5],< 100 nM
"O=C(O)c1ccc(-c2cccc(-c3c(-c4ccccc4)c4cc(F)ccc4n3S(=O)(=O)c3ccc(C(F)F)cc3)c2)c(Cl)c1 [C11/39, reference compound]",FL-M2H Gal4α efficacy (value in brackets),full length (FL) LXRα,117%
same,EC50,full length (FL) LXRα; [6],< 100 nM
same,EC50,full length (FL) LXRα; read-out: FL-M2H Gal4α potency,14 nM
same,FRETβ efficacy (value in brackets),[1]; [7],−91%
same,EC50,[1]; [8],104 nM
same,EC50,[1]; [4],100 to 1000 nM
same,FL-M2H Gal4β efficacy (value in brackets),full length (FL) LXRβ,140%
same,EC50,full length (FL) LXRβ; [5],< 100 nM
same,EC50,full length (FL) LXRβ; read-out: FL-M2H Gal4β potency,14 nM
"N#Cc1cccc(-c2c(-c3cccc(-c4ccc(C(=O)O)cc4Cl)c3)n(S(=O)(=O)c3ccc(C(F)F)cc3)c3ccc(F)cc23)c1 [C11/48, reference compound]",FL-M2H Gal4α efficacy (value in brackets),full length (FL) LXRα,118%
same,EC50,full length (FL) LXRα; read-out: FL-M2H Gal4α potency,62 nM
same,FRETβ efficacy (value in brackets),[1]; [7],−96%
same,EC50,[1]; [8],49 nM
same,EC50,[1]; [4],< 100 nM
same,FL-M2H Gal4β efficacy (value in brackets),full length (FL) LXRβ,123%
same,EC50,full length (FL) LXRβ; [5],< 100 nM
same,EC50,full length (FL) LXRβ; read-out: FL-M2H Gal4β potency,32 nM
"Cc1ccc(S(=O)(=O)n2c(-c3cccc(-c4ccc(C(C(=O)O)N(C)C)cc4Cl)c3)c(-c3ccsc3C#N)c3cc(F)ccc32)cc1 (stereo not shown) [Example 3, 2-(2-Chloro-3′-(3-(2-cyanothiophen-3-yl)-5-fluoro-1-tosyl-1H-indol-2-yl)-[1,1′-biphenyl]-4-yl)-2-(dimethylamino)acetic Acid]",EC50,full length (FL) LXRα; [6],< 100 nM
same,EC50,[1]; [4],< 100 nM
same,EC50,full length (FL) LXRβ; [5],< 100 nM
